# In ChEMBL document CHEMBL5053524, “Novel Electrophilic Warhead Targeting a Triple-Negative Breast Cancer Driver in Live Cells Revealed by "Inverse Drug Discovery"” (J Med Chem, 2021):
# Legend:
# MDA-MB-468 [1] = test: Antiproliferative activity agaisnt human MDA-MB-468 cells assessed as cell viability incubated for 24 hrs by CCK8 assay; format: functional, cell-based; conditions: MDA-MB-468, 24 h
# MDA-MB-453 = test: Antiproliferative activity agaisnt human MDA-MB-453 cells assessed as cell viability incubated for 24 hrs by CCK8 assay; format: functional, cell-based; conditions: MDA-MB-453, 24 h
# MDA-MB-231 = test: Antiproliferative activity agaisnt human MDA-MB-231 cells assessed as cell viability incubated for 24 hrs by CCK8 assay; format: functional, cell-based; conditions: MDA-MB-231, 24 h
# MDA-MB-468 [2] = test: Antiproliferative activity agaisnt human MDA-MB-468 cells assessed as cell viability incubated for 24 hrs in presence of scrambled siRNA by CCK8 assay; format: functional, cell-based; conditions: MDA-MB-468, 24 h
# [3] = biological target: Glutathione S-transferase P (Homo sapiens, UniProt P09211); test: Inhibition of recombinant GSTP1 (unknown origin) using GSH substrate
# MCF7 = test: Antiproliferative activity agaisnt human MCF7 cells assessed as cell viability incubated for 24 hrs by CCK8 assay; format: functional, cell-based; conditions: MCF7, 24 h
# MDA-MB-468 [4] = test: Antiproliferative activity agaisnt human MDA-MB-468 cells assessed as cell viability incubated for 24 hrs in presence of GSTP1 siRNA by CCK8 assay; format: functional, cell-based; conditions: MDA-MB-468, 24 h
# Bcap37 = test: Antiproliferative activity against human BcaP37 cells assessed as cell viability incubated for 24 hrs by CCk8 assay; format: functional, cell-based; conditions: Bcap37, 24 h
# Chain of Glutathione S-transferase P (P09211 whole entry): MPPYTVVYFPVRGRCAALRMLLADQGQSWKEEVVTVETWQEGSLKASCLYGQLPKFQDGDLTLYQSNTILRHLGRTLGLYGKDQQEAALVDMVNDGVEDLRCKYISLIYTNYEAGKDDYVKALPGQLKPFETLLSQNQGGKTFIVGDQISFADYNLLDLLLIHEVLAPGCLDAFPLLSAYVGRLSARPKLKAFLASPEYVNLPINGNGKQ
smiles,measurement,setting,value
O=c1cc1-c1ccc(OCc2ccccc2)cc1,IC50,MDA-MB-468 [1],3.47 µM
same,IC50,MDA-MB-453,11 µM
same,IC50,MDA-MB-231,5.02 µM
same,IC50,MDA-MB-468 [2],3.46 µM
same,IC50,[3],0.73 µM
same,IC50,MCF7,12.5 µM
same,IC50,MDA-MB-468 [4],5.02 µM
O=c1cc1-c1ccc(OCc2ccc(-c3ccccc3)cc2)cc1,IC50,[3],3.2 µM
C#CCOc1ccc(-c2cc2=O)cc1,IC50,Bcap37,45 µM
same,IC50,[3],1.64 µM
C#CCOc1ccc(-c2c(N(CC)CC)c2=O)cc1,IC50,Bcap37,46.1 µM
COc1ccc2cc(-c3cc3=O)ccc2c1,IC50,MDA-MB-468 [1],4.48 µM
same,IC50,MDA-MB-453,30 µM
same,IC50,MDA-MB-231,6.14 µM
same,IC50,MDA-MB-468 [2],4.47 µM
same,IC50,[3],1.99 µM
same,IC50,MCF7,14.7 µM
same,IC50,MDA-MB-468 [4],20.1 µM
O=c1cc1-c1ccc2ccccc2c1,IC50,[3],0.36 µM
C#CCOC(=O)CCCCc1cc1=O,IC50,Bcap37,10.6 µM
same,IC50,[3],1.18 µM
O=c1cc1-c1ccc(Oc2ccccc2)cc1,IC50,[3],0.73 µM
C#CCOc1ccc(-c2c(-c3ccc(OCC#C)cc3)c2=O)cc1,IC50,Bcap37,26.1 µM
